Laboratory results taken from patent US9408852B2, “Method of lowering serum uric acid levels with (S)-tofisopam” (PHARMOS CORPORATION, priority 2011, dated 2016).
“And” between values parts separate entries of the source, which are not always exact repeats. Identical values can stand only once.

Assays:
Type in all cases: in vivo, human
serum creatinine = test: Serum creatinine in male and female patients with hyperuricemia and gout, 7 days (Example 8)
Procedure: (§1) The study lasted 7 days, and patients were treated with placebo or 50 mg of enantiomerically-pure (S)-tofisopam once a day (qd) on Day 1 and Day 7 of the study, and with placebo or 50 mg of enantiomerically-pure (S)-tofisopam three times a day (tid) for Days 2 to 6 of the study. […] In Table 7, days indicated with a minus sign (e.g. D-1) indicate the time point corresponding to that number of days before treatment was initiated. For example, D-14 is the time point fourteen days before treatment was initiated.

[1] = system: urinary uric acid excretion; test: 24 h urinary uric acid excretion in patients with hyperuricemia and gout (Example 9); conditions: for Percent change in Uu (mg/24 h), amount of uric acid excreted into the urine over 24 hours / Percent change in Uu (mg/dL), concentration of uric acid in 24 hour urine: 50 mg qd Day 1 and 7, tid Days 2 to 6
Procedure: as §1, with “8,” for “7,”

[2] = system: urinary creatinine excretion; test: 24 h urinary creatinine excretion in patients with hyperuricemia and gout (Example 9); conditions: 50 mg qd Day 1 and 7, tid Days 2 to 6
Procedure: as §1, with “8,” for “7,”

[3] = system: fractional excretion of urate; test: Fractional excretion of urate in patients with hyperuricemia and gout (Example 9); conditions: 50 mg qd Day 1 and 7, tid Days 2 to 6
Procedure: as §1, with “8,” for “7,”

clearance creatinine = test: Creatinine clearance in patients with hyperuricemia and gout (Example 9); conditions: 50 mg qd Day 1 and 7, tid Days 2 to 6
Procedure: as §1, with “8,” for “7,”

[4] = 50 mg qd Day 1 and Day 7, tid Days 2 to 6, Day 4 (Day 1 0 h = 0.0), hyperuricemia and gout
[5] = 50 mg qd Day 1 and Day 7, tid Days 2 to 6, Day 5 (Day 1 0 h = 0.0), hyperuricemia and gout
[6] = 50 mg qd Day 1 and Day 7, tid Days 2 to 6, Day 6 (Day 1 0 h = 0.0), hyperuricemia and gout
[7] = 50 mg qd Day 1 and Day 7, tid Days 2 to 6, Day 6 to Day 7: Day 6 + Day 7, hyperuricemia and gout
[8] = 50 mg qd Day 1 and Day 7, tid Days 2 to 6, Day 7 (Day 1 0 h = 0.0), hyperuricemia and gout
[9] = 50 mg qd Day 1 and Day 7, tid Days 2 to 6, Day 8 (after treatment stopped), hyperuricemia and gout
[10] = 50 mg qd Day 1 and Day 7, tid Days 2 to 6, Day 15 (after treatment stopped), hyperuricemia and gout
[11] = individual patient (P#), [D 1 to D 2] from [D −2 to D −1]
[12] = individual patient (P#), [D 6 to D 7] from [D 1 to D 2]
[13] = mean (M) of patients, [D 1 to D 2] from [D −2 to D −1]
[14] = mean (M) of patients, [D 6 to D 7] from [D 1 to D 2]

In the case of `CC[C@@H]1C(C)=NN=C(c2ccc(OC)c(OC)c2)c2cc(OC)c(OC)cc21` [(S)-tofisopam], the “Percent change in serum creatinine, mean (M) of 13 patients” value (shortened to “Percent change in serum creatinine, mean”) (serum creatinine; 50 mg qd Day 1 and Day 7, tid Days 2 to 6, Day 3 (Day 1 0 h = 0.0), hyperuricemia and gout) is reported as 10.1%, the “Percent change in serum creatinine, individual patients (P# 1-13)” value (“Percent change … (P# 1-13)” below) (serum creatinine; [4]) is reported as 3.8% and −5.6% and 4.9% and −2.0% and 21.6% and −2.8% and 3.2% and 14.1% and 18.7% and the “Percent change in serum creatinine, mean” value (serum creatinine; [4]) is reported as 6.1%. For the same compound, the “Percent change … (P# 1-13)” value (serum creatinine; [5]) was −5.1% and −3.7% and 8.7% and 9.8% and 23.4% and 0.9% and 14.3% and 7.7% and 24.0%, the “Percent change in serum creatinine, mean” value (serum creatinine; [5]) was 7.2% and the “Percent change … (P# 1-13)” value (serum creatinine; [6]) was 17.7% and 7.4% and 2.9% and 4.9% and 9.9% and 0.0% and 6.3% and 7.7% and 18.7%. For the same compound, the “Percent change in serum creatinine, mean” value (serum creatinine; [6]) was 8.0%, the “Percent change … (P# 1-13)” value (serum creatinine; [7]) was 15.2% and 2.3% and 0.5% and 1.0% and 10.4% and 5.7% and 7.1% and 5.1% and 12.0% and the “Percent change in serum creatinine, mean” value (serum creatinine; [7]) was 5.8%. The “Percent change … (P# 1-13)” value (serum creatinine; [8]) was 12.7% and −2.8% and −1.9% and −2.9% and 10.8% and 11.3% and 7.9% and 2.6% and 5.3%, the “Percent change in serum creatinine, mean” value (serum creatinine; [8]) was 3.7% and the “Percent change … (P# 1-13)” value (serum creatinine; [9]) was 10.1% and −7.4% and −8.7% and −6.9% and 0.9% and −2.8% and 12.7% and 12.8% and 24.0%. The “Percent change in serum creatinine, mean” value (serum creatinine; [9]) was 3.8%, the “Percent change … (P# 1-13)” value (serum creatinine; [10]) was 27.8% and 9.3% and 19.4% and 4.9% and 17.1% and 23.6% and 25.4% and −2.6% and 46.7% and the “Percent change in serum creatinine, mean” value (serum creatinine; [10]) was 13.6%. For the same compound, the “Effect on serum creatinine levels” value (serum creatinine; 50 mg qd Day 1 and Day 7, tid Days 2 to 6, male and female patients with hyperuricemia and gout) was “does not modify”, the “Serum creatinine levels once treatment was stopped after 7 days” value (serum creatinine; after 7 days of 50 mg treatment, hyperuricemia and gout) was “did not substantially change” and the “Uric acid excretion levels in the urine” value ([1]; after initiation of treatment, 50 mg qd Day 1 and Day 7, tid Days 2 to 6, hyperuricemia and gout) was “increased”. The “Percent change in Uu (mg/24 h), amount of uric acid excreted into the urine over 24 hours” value (“Percent change in Uu (mg/24 h), amount” below) [1, 11] was 14.4% and 6.5% and −29.9% and 12.0% and −55.4% and 85.4% and 25.1% and 99.2% and 43.4% and −30.9% and −7.1% and 27.8%, the “Percent change in Uu (mg/dL), concentration of uric acid in 24 hour urine” value (“Percent change in Uu (mg/dL)” below) [1, 11] was 32.7% and −13.4% and 4.0% and 15.5% and −77.6% and 91.7% and 106.9% and 71.3% and 13.1% and −24.6% and −32.7% and 54.8% and the “Percent change in Uu (mg/24 h), amount” value [1, 12] was 4.6% and 21.3% and 43.8% and 18.3% and 1.0% and −7.0% and −11.6% and −18.9% and 7.9% and −13.3% and −22.8%. The “Percent change in Uu (mg/dL)” value [1, 12] was −15.6% and 1.7% and −17.5% and −15.9% and −20.8% and −40.4% and −48.3% and −49.3% and −9.5% and −14.3% and −39.5%, the “Percent change in Uu (mg/24 h), amount” value [1, 13] was 15.9% and the “Percent change in Uu (mg/dL)” value [1, 13] was 20.1%. The “Percent change in Uu (mg/24 h), amount” value [1, 14] was 2.1%, the “Percent change in Uu (mg/dL)” value [1, 14] was −24.5% and the “Percent change in Uc (mg/24 h), amount of creatinine excreted into the urine over 24 hours” value (“Percent change in Uc (mg/24 h), amount” below) [2, 11] was 47.6% and 5.5% and −22.9% and −16.8% and 11.5% and −8.7% and −5.2% and −8.1% and −15.0% and −3.5% and −11.0% and 3.8%. The “Percent change in Uc (mg/dL), concentration of creatinine in 24 hour urine” value (“Percent change in Uc (mg/dL)” for short) [2, 11] was 71.2% and −14.5% and 14.4% and −14.1% and −44.2% and −5.6% and 56.8% and −21.0% and −33.0% and 5.4% and −35.5% and 25.6%, the “Percent change in Uc (mg/24 h), amount” value [2, 12] was −14.5% and 19.2% and 15.4% and 10.8% and 7.9% and 5.9% and 5.6% and 21.6% and 5.8% and −4.8% and −10.8% and the “Percent change in Uc (mg/dL)” value [2, 12] was −31.0% and 0.2% and −33.7% and −21.3% and −15.2% and −32.1% and −38.3% and −24.0% and −11.2% and −6.0% and −30.1%. For the same compound, the “Percent change in Uc (mg/24 h), amount” value [2, 13] was −1.9%, the “Percent change in Uc (mg/dL)” value [2, 13] was 0.5% and the “Percent change in Uc (mg/24 h), amount” value [2, 14] was 5.6%. The “Percent change in Uc (mg/dL)” value [2, 14] was −22.1%, the “Percent change in FEu (fractional excretion uric acid)” value [3, 11] was −14.9% and 11.7% and −0.2% and 41.9% and −54.2% and 137.8% and 62.9% and 162.7% and 51.0% and −29.6% and 19.5% and 40.4% and the “Percent change in FEu (fractional excretion uric acid)” value [3, 12] was 139.3% and 78.5% and 160.4% and 60.9% and 100.7% and 62.6% and 17.3% and 33.2% and 61.6% and 57.5% and 125.9%. The “Percent change in FEu (fractional excretion uric acid)” value [3, 13] was 35.8%, the “Percent change in FEu (fractional excretion uric acid)” value [3, 14] was 81.6% and the “Percent change in CLc (clearance creatinine)” value (from here on “Percent change in CLc”) (clearance creatinine; [11]) was 35.1% and 2.5% and −24.4% and −14.2% and 16.2% and −22.4% and 0.7% and −4.1% and −2.7% and −1.3% and −11.8% and 11.2%. The “Percent change in CLc” value (clearance creatinine; [12]) was −12.7% and 15.2% and 21.1% and 14.0% and 8.9% and 0.0% (2×) and −3.9% and 14.3% and 0.7% and −23.7%, the “Percent change in CLc” value (clearance creatinine; [13]) was −1.3% and the “Percent change in CLc” value (clearance creatinine; [14]) was 3.1%.
